From a melting point compilation (Tetko et al.; mined from patent text by program, amines drawn as free bases though some values may be those of a salt)

| SMILES | melting point [°C] |
| --- | --- |
| CC(C)(C)OC(=O)NNCCC12CC3CC(CC(C3)C1)C2 | 73.5 to 81 |
| Oc1cc(/C=C/c2ccccc2)cc(O)c1O | 172 |
| Cc1[nH]c2ccc(C(=O)c3ccccc3)cc2c1C=O | 227 to 230 |
| Cc1cc(C(=O)Nc2cc(-c3c(-c4ccc(F)c(C)c4)nc4cccnn34)ccn2)cc(Cl)n1 | 298 to 300 |
| O=C(CNc1ccc(O)cc1)N1CCC(Cc2ccc(F)cc2)CC1 | 155 to 157 |
| N#Cc1ncc(F)cc1O | 201 |
| O=C1C2CCCN2c2ncccc2N1Cc1ccccc1 (stereo not given) | 222 to 225 |
| c1ccc2c(c1)Cn1cccc1C1(CCNCC1)O2 | 168 to 170 |
| CC(CNc1cc(Oc2ccc3c(C(=O)Nc4cc(C(C)(C)C)nn4-c4ccc(F)cc4)cccc3c2)ncn1)N(C)C (stereo not given) | 190 to 193 |
| CON1C(C)(C)CC(CCCCNc2nc(N)nc(NCCCCC3CC(C)(C)N(OC)C(C)(C)C3)n2)CC1(C)C | 163 to 165 |
| CCC(CC)(CC(=O)Nc1cccc(/C=C/c2nc(C3CCC3)cs2)c1)C(=O)O | 170 to 172 |
| N#CCCNC(=O)c1cccc(-c2ccc3ccn(-c4ccc(Cl)cc4Cl)c3n2)c1 | 215 to 216 |
| O=CNCc1ccc(CN2CCN(c3ccccc3)CC2)cc1 | 108 to 109 |
| CCOP(=O)(Cc1ccc(NC(=O)CCc2cnoc2-c2ccccc2)cc1)OCC | 139 to 140 |
| CCOC(CCCNS(=O)(=O)c1ccccc1)OCC | 109 |
| Cc1noc(NC(=O)N2CCN(c3nccc(-c4cc(F)ccc4F)n3)CC2)c1C | 218 to 219 |
| O=C1c2ccccc2C(Cc2ccnc(F)c2)(Cc2ccnc(F)c2)c2ccccc21 | 156 to 157 |
| COc1ccc(S(=O)(=O)C2(C(=O)NO)CCN(C3CCCCCCC3)CC2)cc1 | > 200 |
| O=c1c2cc(F)c(F)cc2nc(CSc2ncnc3[nH]cnc23)n1-c1ccccc1Cl | 208 |
| NC(=O)C(OCC1c2ccccc2-c2ccccc21)c1ccc(C(=O)O)cc1 (stereo not given) | 232 to 235 |
| N#Cc1cccc(CN2CCC(c3ccc(NC(=O)c4ccccc4-c4ccc(C(F)(F)F)cc4)cc3)CC2)c1 | 124 to 126 |
| COc1cc2c(cc1OC)/C(=N/OCc1ccc([N+](=O)[O-])cc1)CCC2 | 124 to 127 |
| CC(=O)Cc1cccc2c1C(=O)c1ccccc1C2=O | 198 to 200 |
| CC(C)Cc1ccc(C(C)C(=N)NO)cc1 (stereo not given) | 75 to 78 |
| CCc1nnc(-c2ccc(OC)cc2)n1-c1ccc(C(=O)N(C)C)cc1 | 136 |

| SMILES | melting point [°C] |
| --- | --- |
| CCOC(=O)c1ccc2c(CCN)c[nH]c2c1 | 169 to 172 |
| CCCCCCCCCCCCCCCCc1ccc(S(=O)(=O)Cl)cc1 | 35 to 36 |
| CS(=O)(=O)c1ccc(C(CC2CCCC2)C(=O)Nc2ncc(C(=O)O)s2)cc1 (stereo not given) | 172 to 176 |
| O=S(=O)(Cc1ccccc1)NCCCCOc1ccc(-n2ccnc2)cc1 | 123 to 124 |
| COc1cc2ncnc(Nc3cccc(Br)c3)c2cc1O | 299 |
| COC(=O)c1ccc(N2C(=O)c3ccccc3C2=O)cc1O | 218 to 219 |
| ClCCN(CCCl)CCCCOc1cccc(Nc2c3ccccc3nc3ccccc23)c1 | 126 to 127 |
| CC(=O)c1sc(-c2ccc(C(F)(F)F)cc2)nc1C | 89 to 90 |
| Fc1ccccc1C1=NCc2ccccc2-c2ccc(Br)cc21 | 104 to 105 |
| O=C(C=Cc1cccc(F)c1)c1cnc2sc3c(n12)CCCCC3 | 176 to 177 |
| COCOc1cc(COc2nn(Cc3ccccc3)cc2C=O)ccc1OCc1nc(-c2ccco2)oc1C | 141 to 142 |
| CCOCn1nccc1C(O)c1ccc(O)c(Cl)c1Cl (stereo not given) | 150 |
| NS(=O)(=O)Oc1ccccc1F | 63 to 64 |
| CCOC(=O)c1c(C)nc2c(ncn2C)c1Cl | 56 to 58 |
| CCc1nnc(-c2ccc(OC)cc2)n1-c1ccc([N+](=O)[O-])cc1 | 178 |
| N#Cc1ccc(-c2ncccc2O)cc1 | 245 to 246 |
| CC(=O)N1CCc2cc(O)c(C(F)(F)F)cc21 | 244 to 247 |
| COc1c(N2CC(OC)C(C)(N)C2)c(F)cc2c(=O)c(C(=O)O)cn([C@@H]3C[C@@H]3F)c12 (stereo not given in full) | 150 to 151 |
| CCn1c(C)c(C2(c3c(-c4ccccc4)[nH]c4ccccc34)OC(=O)C(Cl)=C2Cl)c2ccccc21 (stereo not given) | 225 |
| O=C(O)C1=Cc2cc(S(=O)(=O)NCCc3ccccc3)ccc2OC1C(F)(F)F (stereo not given) | 187 to 190 |
| Cn1cc(C(=O)NCc2ccc(Cl)cc2)c(=O)c2cc(CN3CCOCC3)cc(C#Cc3ccncc3)c21 | 200 to 202 |
| Cc1c(CCC(=O)O)c2cc(Cl)ccc2n1Cc1ccc(Br)cc1 | 154 to 155 |
| CCCCCCCCCCCCCCc1ccc(C(C)=O)c(O)c1 | 45 to 46 |
| CC(C)c1cccc(S(=O)(=O)n2c(Cc3ccc(C(=O)O)cc3)cc3cc(Cl)ccc32)c1 | 181 |
| O=C(O)C1=Cc2cc([N+](=O)[O-])ccc2OC1C(F)(F)F (stereo not given) | 187 to 189 |

| SMILES | melting point [°C] |
| --- | --- |
| O=C(O)c1ccc(NC(=O)c2ccccc2SSc2ccccc2C(=O)Nc2ccc(C(=O)O)cc2)cc1 | > 285 |
| CCOC(=O)N1CCC(c2cc3cc(OC)cc(Br)c3o2)CC1 | 85 |
| FC(F)(F)Sc1cn(-c2c(Cl)cc(C(F)(F)F)cc2Cl)c(Cl)n1 | 112 |
| O=C1NCN(c2ccccc2)C12CCN(C[C@@H]1CCc3ccccc3[C@H]1O)CC2 (relative stereo) | 204 to 205 |
| CC(C)NC(=O)c1nc(-c2ccccc2)c(-c2ccc(=O)n(C(C)C)n2)s1 | 131 to 132 |
| O=C(Nc1ccccc1)c1cnc2c(C(F)(F)F)cccc2c1-c1ccccc1 | 207 to 208 |
| CCc1cccc2c3c([nH]c12)C(CC)(CC(O)O)OCC3 (stereo not given) | 158 to 159 |
| CS(=O)(=O)OCCOc1ccc(CN2C(=O)C(=O)c3cc(S(=O)(=O)N4CCCC4COc4ccccc4)ccc32)cc1 (stereo not given) | 152 to 153 |
| O=C1CCC(=O)N1CCS | 45 |
| COCCN(CCOC)C(=O)c1cccc(NC(=O)Oc2ccccc2)c1 | 116 to 118 |
| O=C(O)Cc1ccc(I)c(OCC(F)(F)F)c1 | 153 to 154 |
| COc1cc(OCc2ccccn2)ccc1C=O | 93.6 |
| CCCCCCC1OC1(C(=O)OCC)C(=O)OCC (stereo not given) | 58 to 60 |
| NCC(O)COc1cc([N+](=O)[O-])ccc1N (stereo not given) | 141 |
| Clc1ccc2nc(-n3cccn3)nnc2c1 | 188 |
| CCOC(=O)c1ccc([C@H]2CC[C@H](NCc3ccccc3)CC2)cc1 | 74 to 76 |
| C#CC1(O)CCN(CC=C(c2ccccc2)c2ccccc2)CC1 | 122 to 123 |
| COc1ccc(SC(=C2NCCCS2)[N+](=O)[O-])cc1 | 160 to 162 |
| CC(CCCc1ccccc1)c1cc2oc(=O)c3c(c2cc1O)CCCC3 (stereo not given) | 184 to 193 |
| CCn1ncnc1COc1nc2c(cnn2-c2ccccc2)c2ccccc12 | 147 to 148 |
| C=Cc1c(NC(=O)OC(C)(C)C)cccc1[N+](=O)[O-] | 120 to 121 |
| O=C(O)C1Oc2cc(Cl)c(S(=O)(=O)c3ccc4c(c3)OCO4)cc2O1 (stereo not given) | 182 to 184 |
| CCC1(CC)COC(=O)N1c1nc(-c2ccc(C#N)cc2)c(F)s1 | 151 to 153 |
| CCOC(=O)c1c(Cl)ccc(C(=O)O)c1Cl | 168 |
| CCOC(=O)COc1cccc(-c2n[nH]c3c2Cc2ccccc2-3)c1 | 134 to 136 |

| SMILES | melting point [°C] |
| --- | --- |
| CC(C)c1nn2ccccc2c1SC#N | 91 to 92.5 |
| CS(=O)(=O)c1ccc(-c2cnc(-c3ccc(F)cc3)s2)s1 | 183 to 184 |
| Cc1cn2c(n1)Cc1cc3c(cc1C(c1ccc(N)cc1)=N2)OCO3 | 165 to 166 |
| CN(Cc1ccccc1)c1ccc(C(=O)c2ccccc2)cc1N | 93 to 94 |
| COc1cc(C)nc(Nc2ccccc2)n1 | 75 to 76 |
| O=C(O)CNC(=O)NCCCCC1CCSS1 (stereo not given) | 95 to 96 |
| Fc1ccc(N2CCN(CCCc3[nH]nc4c3CSCC4)CC2)cc1 | 110 to 111 |
| Cc1ccc(-n2c(-c3cc(C)ccc3C=Cc3ccccc3)ccc2-c2cc(C)ccc2C=Cc2ccccc2)cc1 | 314 to 316 |
| Cc1nc(-c2ccc(C(F)(F)F)cc2)oc1CSc1ccc(CC(=O)O)cc1 | 135 to 136 |
| CCCCCCCCCC=[N+]([O-])CCCCCCCCCC | 63 to 65 |
| CC(C)n1nc(-c2c(NCCO)nc(N)nc2-c2ccccc2)ccc1=O | 222 to 224 |
| N[C@H](C(=O)O)c1ccc(OCCOC2CCCCC2)cc1 | 219 to 220 |
| CC1(C)CC(Nc2nccc3ccccc23)CC(C)(C)N1 | 133 |
| CCCCc1nc2cc(Cl)cc(C(=O)OC)c2n1Cc1ccc(-c2ccccc2-c2nnn[nH]2)cc1 | 132 to 133 |
| Cc1c(C)c2c(c(C)c1OCC=Cc1ccccc1)C(c1ccc(C(C)C)cc1)C(C)(C)O2 (stereo not given) | 106 to 107 |
| CCCCCCCCCCCCOc1ccc2cc(C(C)C(=O)O)ccc2c1 (stereo not given) | 96 to 97 |
| CCCCCC#CCC(Cc1cccnc1)(C(=O)NO)S(=O)(=O)c1ccc(OC)cc1 (stereo not given) | 146 |
| Nc1ccc(-c2nnn(-c3ccc(C(F)(F)F)cc3F)c2N)cc1 | 164 to 165 |
| O=c1c2cc(F)c(N3CCCC3)c(F)c2n(C2CC2)c(=O)n1O | 228 to 230 |
| Cc1cccc(CNC(=O)c2nc3scc(COCc4ccc(C(=O)O)cc4)c3c(=O)[nH]2)c1 | 237 to 239 |
| CC(C)(C)CNc1nc(NC(C)(C)C)cc(N2CCNCC2)n1 | 146 to 148 |
| OCCC1(c2ccccn2)CCNC1 (stereo not given) | 50 to 55 |
| CC(C)(CO)NS(=O)(=O)c1cccc(NC(=O)c2cnn3c(C(F)(F)F)cc(-c4ccc(C(F)(F)F)c(OCC(F)(F)F)c4)nc23)c1 | 251 |
| O=C(CCCCCBr)c1cc2c3c(c1)CCN3C(=O)CC2 | 97 to 98 |
| CC(C)c1ccc(C2c3cc(N(C)C(=O)CC(C)(C)C)ccc3OC2(C)C)cc1 (stereo not given) | 78 to 79 |
